Data as given in patent US9896445B2, “Heterocyclic inhibitors of ERK1 and ERK2 and their use in the treatment of cancer” (Asana Biosciences, LLC, priority 2015, dated 2018).

What was measured:
ERK2 = biological target: T1, ERK2 (Homo sapiens, UniProt P28482); assay: ERK2 HTRF (biochemical) assay
T1 construct: purchased Jubilant Biosys
Summary of the method: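 Compounds were tested as half-log dilutions from 0.0005 to 10 uM in Tris pH 7.5/MgCl2 buffer, with a substrate mix of 1 uM biotin-MBP peptide and 24 uM ATP and an enzyme mix of 25 nM ERK2. Reaction ran 60 min at room temperature. Phospho-MBP was detected by HTRF (Eu-anti-phospho-MBP/SA-APC, 665/620 nm), and IC50 was fitted with a variable-slope sigmoidal curve.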

ERK1 = biological target: T2, ERK1 (Homo sapiens, UniProt P27361); assay: ERK1 HTRF (biochemical) assay
T2 construct: purchased Jubilant Biosys
Experimental: ERK1 and ERK2 HTRF (Biochemical) Assays
These assays employed a homogeneous time resolved fluorescence (HTRF) technique. […] The plate was incubated at room temperature for 60 min with shaking. […] The IC50 values (half maximal inhibitory concentration values) were subsequently determined using a sigmoidal dose-response curve (variable slope) in GraphPad Prism® 5 software.

T1 sequence (P28482 whole entry): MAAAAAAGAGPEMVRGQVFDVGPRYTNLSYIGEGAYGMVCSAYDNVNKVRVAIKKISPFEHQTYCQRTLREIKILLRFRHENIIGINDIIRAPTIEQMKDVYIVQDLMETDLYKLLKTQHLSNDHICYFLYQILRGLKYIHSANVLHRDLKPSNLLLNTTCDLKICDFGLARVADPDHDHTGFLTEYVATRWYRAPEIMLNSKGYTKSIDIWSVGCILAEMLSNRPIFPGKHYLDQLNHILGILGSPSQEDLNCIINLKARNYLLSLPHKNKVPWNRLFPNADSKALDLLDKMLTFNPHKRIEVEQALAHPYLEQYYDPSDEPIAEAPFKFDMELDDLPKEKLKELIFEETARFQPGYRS
T2 sequence (P27361 whole entry): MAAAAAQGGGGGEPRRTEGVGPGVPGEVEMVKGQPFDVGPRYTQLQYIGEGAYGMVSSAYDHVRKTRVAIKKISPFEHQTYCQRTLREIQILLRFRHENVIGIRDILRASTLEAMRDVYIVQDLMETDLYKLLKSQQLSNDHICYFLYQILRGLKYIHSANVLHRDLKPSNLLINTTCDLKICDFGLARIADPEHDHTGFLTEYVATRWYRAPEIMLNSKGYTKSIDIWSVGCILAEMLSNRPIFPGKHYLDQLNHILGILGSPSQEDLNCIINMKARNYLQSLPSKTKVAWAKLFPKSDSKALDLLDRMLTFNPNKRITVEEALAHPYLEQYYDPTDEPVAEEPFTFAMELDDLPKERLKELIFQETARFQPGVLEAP

IC50 (ERK2; HTRF) | IC50 (ERK1; HTRF) | IC50 (ERK2; HTRF biochemical assay) | IC50 (ERK1; HTRF biochemical assay) | SMILES
100 to 500 nM | 100 to 500 nM |  |  | Cc1cnc(Nc2ccc(F)cc2)cc1-n1cnc(C(=O)NC(CN)c2ccccc2)c1 (single isomer, unassigned) [Compound 228, N-(2-amino-1-phenylethyl)-1-(2-((4-fluorophenyl)-amino)-5-methyl-pyridin-4-yl)-1H-imidazole-4-carboxamide]
≤ 50 nM | < 50 nM |  |  | CC[C@@H](CO)Nc1ncc(C)c(-n2ccc(C(=O)N[C@H](CO)c3cccc(Cl)c3)c2)n1 [Compound 219, N-((S)-1-(3-chlorophenyl)-2-hydroxyethyl)-1-(2-(((S)-1-hydroxy-butan-2-yl)amino)-5-methylpyrimidin-4-yl)-1H-pyrrole-3-carboxamide]
≤ 50 nM | < 50 nM |  |  | O=C(Nc1cnn(-c2ccnc(Nc3ccccc3Cl)n2)c1)N[C@H](CO)c1cccc(Cl)c1 [Compound 1, (S)-1-(1-(3-chlorophenyl)-2-hydroxyethyl)-3-(1-(2-((2-chloro-phenyl)amino)pyrimidin-4-yl)-1H-pyrazol-4-yl)urea]
≤ 50 nM | < 50 nM |  |  | Cc1cnc(NC2CCOc3ccccc32)nc1-n1cnc(C(=O)N[C@H](CO)c2cccc(Cl)c2)c1 (stereo partly drawn) [Compound 247, N-((S)-1-(3-chlorophenyl)-2-hydroxyethyl)-1-(2-(chroman-4-ylamino)-5-methylpyrimidin-4-yl)-1H-imidazole-4-carboxamide]
≤ 50 nM | < 50 nM |  |  | Cc1cnc(Nc2ccc(F)c(N3CCOCC3)c2)nc1-n1cnc(C(=O)NC(CO)c2cccc(Cl)c2)c1 (stereo not drawn) [Compound 223, N-(1-(3-chlorophenyl)-2-hydroxyethyl)-1-(2-((4-fluoro-3-morpholinophenyl)amino)-5-methyl-pyrimidin-4-yl)-1H-imidazole-4-carboxamide]
≤ 50 nM | < 50 nM |  |  | Cc1cnc(NC2CCOCC2)nc1-n1cnc(C(=O)NC(CN)c2cccs2)c1 (stereo not drawn) [Example 267, N-(2-amino-1-(thiophen-2-yl)ethyl)-1-(5-methyl-2-((tetrahydro-2H-pyran-4-yl)amino)-pyrimidin-4-yl)-1H-imidazole-4-carboxamide]
≤ 50 nM | < 50 nM |  |  | Cc1cnc(NC2CCOCC2)nc1-n1cnc(C(=O)NCc2cccc(Cl)c2CO)c1 [Compound 93, N-(3-chloro-2-(hydroxymethyl)benzyl)-1-(5-methyl-2-((tetrahydro-2H-pyran-4-yl)amino)pyrimidin-4-yl)-1H-imidazole-4-carboxamide]
≤ 50 nM | < 50 nM |  |  | Cc1cnc(N[C@@H]2CCOC2)nc1-n1cnc(C(=O)N[C@H](CO)c2cccc(Cl)c2)c1 [Example 265, N-((S)-1-(3-chlorophenyl)-2-hydroxyethyl)-1-(5-methyl-2-(((R)-tetrahydrofuran-3-yl)amino)pyrimidin-4-yl)-1H-imidazole-4-carboxamide]
≤ 50 nM | < 50 nM |  |  | Cc1cnc(Nc2ccc3c(c2)OCCC3)nc1-n1ccc(C(=O)NC(CO)c2ccccc2)c1 (stereo not drawn) [Compound 186, 1-(2-(chroman-7-ylamino)-5-methyl-pyrimidin-4-yl)-N-(2-hydroxy-1-phenylethyl)-1H-pyrrole-3-carboxamide]

Continued, compound first:

SMILES | IC50 (ERK2; HTRF) | IC50 (ERK1; HTRF) | IC50 (ERK2; HTRF biochemical assay) | IC50 (ERK1; HTRF biochemical assay)
CCC(=O)OCc1c(Cl)cccc1CNC(=O)c1cn(-c2nc(NC3CCOCC3)ncc2C)cn1 [Example 348, 2-chloro-6-((1-(5-methyl-2-((tetrahydro-2H-pyran-4-yl)amino)-pyrimidin-4-yl)-1H-imidazole-4-carboxamido)-methyl)benzyl-propionate] |  |  | ≤ 50 nM | < 50 nM
CC[C@@H](CO)Nc1ncc(C)c(-n2ccc(C(=O)NC(CO)c3cccc(Cl)c3)c2)n1 (stereo partly drawn) [Compound 146, N-(1-(3-chloro-phenyl)-2-hydroxy-ethyl)-1-(2-(((S)-1-hydroxybutan-2-yl)amino)-5-methylpyrimidin-4-yl)-1H-pyrrole-3-carboxamide] | ≤ 50 nM | < 50 nM |  | 
CC[C@@H](CO)Nc1ncc(C)c(-n2cnc(C(=O)N[C@H](CO)c3cccc(Cl)c3)c2)n1 [Compound 220, N-((S)-1-(3-chlorophenyl)-2-hydroxyethyl)-1-(2-(((S)-1-hydroxy-butan-2-yl)amino)-5-methylpyrimidin-4-yl)-1H-imidazole-4-carboxamide] | ≤ 50 nM | < 50 nM |  | 
O=C(Nc1cnn(-c2ccnc(Nc3ccccc3)n2)c1)N[C@H](CO)c1cccc(Cl)c1 [Compound 12, (S)-1-(1-(3-chlorophenyl)-2-hydroxyethyl)-3-(1-(2-(phenyl-amino)pyrimidin-4-yl)-1H-pyrazol-4-yl)urea] | ≤ 50 nM | < 50 nM |  | 
Cc1cnc(NC2CCOCC2)nc1-n1cnc(C(=O)NCc2cccc(CO)c2Cl)c1 [Example 335, N-(2-chloro-3-(hydroxymethyl)-benzyl)-1-(5-methyl-2-((tetrahydro-2H-pyran-4-yl)amino)-pyrimidin-4-yl)-1H-imidazole-4-carboxamide] |  |  | ≤ 50 nM | < 50 nM
COc1ccc(Nc2ncc(C)c(-n3ccc(C(=O)NC(CO)c4cccc(Cl)c4)c3)n2)cc1OCCCN(C)C (stereo not drawn) [Compound 184, N-(1-(3-chloro-phenyl)-2-hydroxy-ethyl)-1-(2-((3-(3-(dimethylamino)propoxy)-4-methoxy-phenyl)amino)-5-methylpyrimidin-4-yl)-1H-pyrrole-3-carboxamide] | ≤ 50 nM | < 50 nM |  | 
Cc1cnc(NC2CCC(F)(F)CC2)nc1-n1cnc(C(=O)N[C@H](CN)c2cccc(Cl)c2)c1 [Example 286, (S)-N-(2-amino-1-(3-chlorophenyl)-ethyl)-1-(2-((4,4-difluorocyclo-hexyl)amino)-5-methylpyrmidin-4-yl)-1H-imidazole-4-carboxamide] | ≤ 50 nM | < 50 nM |  | 
Cc1cnc(Nc2ccc3c(c2)OCO3)nc1-n1ccc(C(=O)NC(CO)c2ccc(F)cc2)c1 (stereo not drawn) [Compound 172, 1-(2-(benzo[d][1,3]dioxol-5-ylamino)-5-methylpyrimidin-4-yl)-N-(1-(4-fluorophenyl)-2-hydroxyethyl)-1H-pyrrole-3-carboxamide] | ≤ 50 nM | < 50 nM |  | 
NCC(NC(=O)c1ccn(-c2ccnc(Nc3ccc(F)cc3)c2)c1)c1ccccc1 (stereo not drawn) [Compound 206, N-(2-amino-1-phenylethyl)-1-(2-((4-fluorophenyl)-amino)pyridin-4-yl)-1H-pyrrole-3-carboxamide] | ≤ 50 nM | < 50 nM |  | 
Cc1cnc(NC2CCOCC2)nc1-n1cnc(C(=O)NCc2sccc2CO)c1 [Example 284, N-((3-(hydroxy-methyl)thiophen-2-yl)methyl)-1-(5-methyl-2-((tetrahydro-2H-pyran-4-yl)amino)-pyrimidin-4-yl)-1H-imidazole-4-carboxamide] | ≤ 50 nM | < 50 nM |  | 
Cc1cnc(Nc2ccc(F)c(N3CCOCC3)c2)nc1-n1cnc(C(=O)NC(CN)c2cccc(Cl)c2)c1 (stereo not drawn) [Example 256, N-(2-amino-1-(3-chlorophenyl)ethyl)-1-(2-((4-fluoro-3-morpholinophenyl)amino)-5-methyl-pyrimidin-4-yl)-1H-imidazole-4-carboxamide] | ≤ 50 nM | < 50 nM |  | 
O=C(N[C@H](CO)c1cccc(Cl)c1)c1ccn(-c2ccnc(NC3CCOC3)c2)c1 (stereo partly drawn) [Compound 188, N-((S)-1-(3-chlorophenyl)-2-hydroxyethyl)-1-(2-((tetrahydrofuran-3-yl)amino)pyridin-4-yl)-1H-pyrrole-3-carboxamide] | 100 to 500 nM | 100 to 500 nM |  | 
